Measured values from patent US7560468B2, “Substituted 1,4,8-triazaspiro[4,5]decan-2-one compounds” (Gruenenthal GmbH, priority 2004, dated 2009).

Tests used:
5-HT transporter = biological target: T1, 5-HT transporter (Rattus norvegicus, UniProt P31652); experiment: Inhibition of 5-HT uptake in synaptosomes; format: biochemical; conditions: for inhibition at 1 µM: read-out: Uptake_5-HT, rat, 1 μM, % inhibition
T1 construct: from tissue; host or cells: rat brain synaptosomes (marrow/medulla and pons), P2 fraction
T1 sequence (P31652 whole entry): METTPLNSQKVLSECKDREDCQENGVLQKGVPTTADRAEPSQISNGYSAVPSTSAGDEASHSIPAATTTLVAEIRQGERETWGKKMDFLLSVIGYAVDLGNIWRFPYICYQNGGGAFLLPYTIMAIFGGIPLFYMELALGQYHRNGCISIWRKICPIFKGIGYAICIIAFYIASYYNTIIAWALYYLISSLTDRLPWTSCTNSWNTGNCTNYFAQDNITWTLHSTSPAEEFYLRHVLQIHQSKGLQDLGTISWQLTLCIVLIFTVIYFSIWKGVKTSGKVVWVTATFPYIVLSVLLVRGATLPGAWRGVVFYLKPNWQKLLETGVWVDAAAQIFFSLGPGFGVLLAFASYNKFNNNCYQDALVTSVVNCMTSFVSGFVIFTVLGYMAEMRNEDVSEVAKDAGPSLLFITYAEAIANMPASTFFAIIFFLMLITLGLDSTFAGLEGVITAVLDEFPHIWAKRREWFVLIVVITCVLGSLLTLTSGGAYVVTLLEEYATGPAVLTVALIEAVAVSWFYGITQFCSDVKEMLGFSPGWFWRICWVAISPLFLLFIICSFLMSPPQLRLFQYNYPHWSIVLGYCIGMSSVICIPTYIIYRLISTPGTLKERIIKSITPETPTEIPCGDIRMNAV

NA transporter = experiment: Inhibition of noradrenalin uptake in synaptosomes; format: biochemical
[1] = test system: batrachotoxin (BTX) binding site of the sodium channel; experiment: Affinity to the batrachotoxin (BTX) binding site of the sodium channel; conditions: rat cerebrocortex synaptosomes, [3H]-batrachotoxinin A20 α-benzoate 10 nM; test concentration not given
human CB2 receptor = human CB2 receptor (Homo sapiens, UniProt P34972); experiment: Affinity to the cannabinoid receptor CB2, displacement of [3H]-CP 55,940; conditions: for Inhibition CB2 10 μM, % inhibition: membranes of HEK 293EBNA cells with human CB2 receptor; for inhibition at 10 µM: read-out: Inhibition CB2 10 μM, % inhibition
Chain of human CB2 receptor (P34972 whole entry): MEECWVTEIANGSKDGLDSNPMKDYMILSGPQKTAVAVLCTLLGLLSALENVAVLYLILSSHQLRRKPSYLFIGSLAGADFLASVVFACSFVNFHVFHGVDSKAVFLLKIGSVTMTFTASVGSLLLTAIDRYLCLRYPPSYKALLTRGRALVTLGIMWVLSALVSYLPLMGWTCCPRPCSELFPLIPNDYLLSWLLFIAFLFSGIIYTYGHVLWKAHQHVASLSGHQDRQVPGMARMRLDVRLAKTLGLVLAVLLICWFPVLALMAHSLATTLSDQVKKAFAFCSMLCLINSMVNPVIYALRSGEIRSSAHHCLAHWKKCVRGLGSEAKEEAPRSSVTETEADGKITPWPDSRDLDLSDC
Experimental: The radioligand used was tritium-labeled 5-(1,1-dimethylheptyl)-2-(5-hydroxypropyl)cyclohexyl)-1-alpha,2-beta,5-alpha)-phenol (^[3]H—CP 55,940 with 103.4 of Ci/mmol, 1 m Ci/mL). Determination was carried out in a test buffer comprising 50 mM of Tris-HCl, 2.5 mm of EDTA, 5 mm of MgCl2 and 1.0 mg/mL of fatty acid-free BSA. The test substances were in each case dissolved in DMSO.
The affinity of the compounds of the invention to the CB2 receptor is determined by their ability to displace ^[3]H—CP from 55,940 of CB2 receptors in membranes of HEK 293 EBNA cells. For this purpose 8 μg of membranes (20 mL of a solution of membranes in a concentration of 400 g/ml) are incubated in wells of a microtiter plate with a 0.33 nM of solution of [3]H-CP 55,949 (120 of Ci/mmol) in a total volume of test buffer of 200 μL for 90 minutes at 30° C.
Subsequently, either the test substances or WIN 55,212-2 for determination the non-specific binding are placed, dissolved in each case in dimethyl sulphoxide, in the wells so that in each case a concentration of the relevant substances of 10 μM is obtained.
Incubation is continued for a further 40 minutes at 30° C. dc. […] The filters are washed nine times with 0.5 mL of ice-cold washing buffer (50 nM of Tris-HCl, 5 mM of MgCl2, 2.5 mm of EDTA, 2% of BSA, pH 7.4), air-dried, placed in scintillation liquid, and the radioactivity is determined with the aid of a scintillation counter.
The percentage displacement of the radio-active ligand ^[3]H—CP 55,940 from its binding to the CB2 receptor is indicated as percentage inhibition of the specific binding. In order to determine Ki the IC50 inhibition concentrations are calculated based on of the percentage displacement achieved by the compounds of the general formula I to be tested at various concentrations causing a 50 percent displacement of the radioactive ligands.

SMILES	Uptake_5-HT, rat, 1 μM, % inhibition (5-HT transporter) [%]	Uptake (NA), rat, 10 μM, % inhibition (NA transporter) [%]	BTX Inhibition [1]	Inhibition CB2 10 μM, % inhibition (human CB2 receptor) [%]	inhibition at 1 µM (5-HT transporter) [%]	inhibition at 10 µM (human CB2 receptor) [%]
CCOC(=O)CN1C(=O)C(Cc2ccccc2)NC12CCN(S(=O)(=O)c1ccc(OC)cc1)CC2 (centres unmarked) [Example 50, Ethyl[3-benzyl-8-(4-methoxy-benzolsulfonyl)-2-oxo-1,4,8-triazaspiro[4,5]dec-1-yl]-acetate]	79	38	32	52		
CCCCN1C(=O)C(Cc2ccccc2)NC12CCN(S(=O)(=O)c1ccc(C(C)(C)CC)cc1)CC2 (centres unmarked) [Example 28, 3-Benzyl-1-butyl-8-[4-(1,1-dimethylpropyl)benzolesulfonyl]-1,4,8-triazaspiro[4,5]decan-2-one]	75		41	40		
O=C1C(Cc2ccccc2)NC2(CCN(S(=O)(=O)c3cc(Cl)sc3Cl)CC2)N1Cc1ccccc1 (centres unmarked) [Example 20, 1,3-Dibenzyl-8-(2,5-dichlorothiophen-3-sulfonyl)-1,4,8-triazaspiro[4,5]decan-2-one]			54		81	66
O=C1C(Cc2ccccc2)NC2(CCN(C(=S)NCC3CCCCC3)CC2)N1Cc1ccccc1F (centres unmarked) [Example 171, 3-Benzyl-1-(2-fluorobenzyl)-2-oxo-1,4,8-triazaspiro[4,5]decan-8-thiocarboxylic acid cyclohexylmethylamide]		34	86			41
CCOc1ccc(NC(=O)N2CCC3(CC2)NC(CCSC)C(=O)N3Cc2ccc3ccccc3c2)cc1 (centres unmarked) [Example 231, 3-(2-Methylsulfanylethyl)-1-naphthalin-2-ylmethyl-2-oxo-1,4,8-triazaspiro[4,5]decan-8-carboxylic acid (4-ethoxy-benzol)amide]	59		79	49		
CCc1ccc(S(=O)(=O)N2CCC3(CC2)NC(Cc2ccccc2)C(=O)N3Cc2ccccc2)cc1 (centres unmarked) [Example 35, 1,3-Dibenzyl-8-(4-ethylbenzolsulfonyl)-1,4,8-triazaspiro[4,5]decan-2-one]	79		54	61		
CCCCN1C(=O)C(Cc2ccccc2)NC12CCN(S(=O)(=O)c1cccc(Cl)c1)CC2 (centres unmarked) [Example 36, 3-Benzyl-1-butyl-8-(3-chlorobenzolsulfonyl)-1,4,8-triazaspiro[4,5]decan-2-one]	65		49	40		
O=C1C(Cc2ccccc2)NC2(CCN(C(=S)Nc3c(Cl)cccc3Cl)CC2)N1Cc1ccccc1F (centres unmarked) [Example 187, 3-Benzyl-1-(2-fluorobenzyl)-2-oxo-1,4,8-triazaspiro[4,5]decan-8-thiocarboxylic acid (2,6-dichlorobenzol)amide]	54	39	86	84		
O=C1C(Cc2ccccc2)NC2(CCN(S(=O)(=O)c3cccs3)CC2)N1Cc1ccccc1 (centres unmarked) [Example 16, 1,3-Dibenzyl-8-(thiophen-2-sulfonyl)-1,4,8-triazaspiro[4,5]decan-2-one]			50		82	58
CC(C)C1NC2(CCN(C(=S)NCc3ccc(F)cc3)CC2)N(Cc2ccccc2)C1=O (centres unmarked) [Example 179, 1-Benzyl-3-isopropyl-2-oxo-1,4,8-triazaspiro[4,5]decan-8-thiocarboxylic acid 4-fluorobenzylamide]			58		47	43
CCCCOc1ccc(S(=O)(=O)N2CCC3(CC2)NC(Cc2ccccc2)C(=O)N3CC(=O)OCC)cc1 (centres unmarked) [Example 73, Ethyl[3-benzyl-8-(4-butoxy-benzolsulfonyl)-2-oxo-1,4,8-triazaspiro[4,5]dec-1-yl]-acetate]	80		52	46		
O=C1C(Cc2ccccc2)NC2(CCN(C(=S)Nc3cc(C(F)(F)F)ccc3Cl)CC2)N1Cc1ccccc1F (centres unmarked) [Example 188, 3-Benzyl-1-(2-fluorobenzyl)-2-oxo-1,4,8-triazaspiro[4,5]decan-8-thiocarboxylic acid (2-chloro-5-trifluoromethylbenzol)amide]	59		77	49		
C=CCN1C(=O)C(CCSC)NC12CCN(S(=O)(=O)c1ccccc1S(C)(=O)=O)CC2 (centres unmarked) [Example 54, 1-Allyl-8-(2-methansulfonylbenzolsulfonyl)-3-(2-methylsulfanylethyl)-1,4,8-triazaspiro[4,5]decan-2-one]	30	46		56		
Cc1cc(C)c(C)c(S(=O)(=O)N2CCC3(CC2)NC(Cc2ccccc2)C(=O)N3Cc2ccccc2)c1C (centres unmarked) [Example 24, 1,3-Dibenzyl-8-(2,3,5,6-tetramethylbenzolsulfonyl)-1,4,8-triazaspiro[4,5]decan-2-one]	66		67	56		
CSCCC1NC2(CCN(C(=S)NCc3ccc(F)cc3)CC2)N(Cc2ccc(F)cc2)C1=O (centres unmarked) [Example 182, 1-(4-Fluorobenzyl)-3-(2-methylsulfanylethyl)-2-oxo-1,4,8-triazaspiro[4,5]decan-8-thiocarboxylic acid 4-fluorobenzylamide]			69		30	64
